Experimental data: patent US20150141437A1, “AMIDOPHENOXYPROPANOLAMINES” (MEDIZINISCHE UNIVERSITÄT WIEN, priority 2012, published 2015)

Key:
Type in all cases: cell-based
[1] = test system: P. falciparum 3D7 (CQ-sensitive); assay: HRP2-based ELISA growth inhibition, 3D7 strain; settings: Plasmodium falciparum, unmarked values: HRP II ELISA, 72 h
Excerpt: (§1) Highly sensitive HRP2-based ELISA and [^3H]-hypoxanthine incorporation assay were used as markers for inhibition of parasite growth as previously described (12, 14). A solvent control and a chloroquine (CQ) control were included in the HRP2-based ELISA. CQ, lumefantrine and artesunate were included as controls in the [^3H]-hypoxanthine assay series.
(§2) The assay protocol of the HRP2-based ELISA is described in more detail in the following paragraphs.
(§3) The P. falciparum clones were maintained in continuous culture as described previously (10). Briefly, 3D7 (CQ-sensitive), NF54, and K1 (CQ-resistant) P. falciparum clones were obtained from MR4/American Type Culture Collection, Manassas, Va., USA under the accession numbers MR4-102 (3D7), MRA-1000 (NF54), and MR4-159 (K1). P. falciparum cultures were maintained in 25 cm^2 flasks. Parasites were cultured in RPMI 1640 (Sigma Aldrich, Austria) medium containing 10% human serum at a hematocrit of 5% (blood group 0 negative) at 37° C. under an atmosphere of 5% CO2, 5% O2 and 90% N2. The medium was changed every 24 to 48 hours. The culture was diluted and fresh erythrocytes were added whenever the parasite density reached >1%.
(§4) Stock solutions of compounds of formula I were prepared in DMSO (10 mg/mL). Stock concentrations of chloroquine and lumefantrine always remained 1 mg/mL and were prepared in 70% ethanol. Coating of culture plates with compounds of formula I and controls: 96 wells culture plates were coated as described previously (11). Working standards were prepared by diluting the stock solutions in RPMI1640 to obtain the desired final concentrations. Serial three-fold dilutions (seven concentrations and one drug-free control well) of the drugs (25 μL/well) were dispensed in duplicate into standard 96-well micro culture plates. Chloroquine was included as a reference drug in all experiments.
(§5) After reaching a parasitemia of 5% or higher, 5 mL of cell medium mixture were centrifuged at 700 g for 5 minutes at room temperature (RT). Packed red cells were resuspended in 3 mL of 5% D-sorbitol (Sigma Aldrich, Austria) in water at RT and immediately centrifuged again at 700 g for 5 minutes at RT followed by three washes with 3 mL of RPMI1640 medium. […].
(§6) Samples were diluted with RPMI1640 medium containing 0.5% Albumax II (GIBCO, Invitrogen, Vienna, Austria) by adding uninfected red blood cells to 1.5% hematocrit and 0.05% parasitemia. 150 μL of this cell medium mixture was then added to each well of 96-well plates precoated with test compounds and incubated at 37° C. for 72 hours in a gas mixture containing 5% CO2, 5% O2, and 90% N2. After 72 hours the plates were frozen at −20° C. until the histidine rich protein II assay (23).
(§7) A highly sensitive HRPII ELISA was used based on two commercially available monoclonal antibodies (Immunology Consultants Laboratory, Inc., Newberg, Oreg.) directed against P. falciparum-specific HRPII: MPFM-55A, an immunoglobulin M antibody served as the primary capture antibody and HRP-conjugated MPFG-55P (Immunology Consultants Laboratory, Inc., Newberg, Oreg.) as secondary antibody. The ELISA was employed to assess growth inhibition as a measure of drug susceptibility as previously described. Optical density was measured at 450 nm using a standard ELISA plate reader (12-13).
(§8) Hyperbolic concentration response curves were fitted to the data points by nonlinear least squares using the solver add-in of the Excel software.
(§9) Indicated in TABLE 2 are the IC50 [μM] values for growth inhibition of the 3D7 (NF54) and K1 strains of P. falciparum for the compounds of formula I indicated with their formula numbers in TABLE 2. Unmarked IC50 values for K1 and 3D7 strains of P. falciparum have been determined by HRP II enzyme linked immunosorbent assay (ELISA) as described above. […]

[2] = test system: P. falciparum K1 (CQ-resistant); assay: HRP2-based ELISA growth inhibition, K1 strain; settings: Plasmodium falciparum, unmarked values: HRP II ELISA, 72 h
Excerpt: as §1, §2, §3, §4, §5, §6, §7, §8, §9

[3] = test system: P. falciparum NF54 (CQ sensitive); assay: [3H]-hypoxanthine incorporation assay, NF54 strain; settings: Plasmodium falciparum, values marked with asterisk: [3H]-hypoxanthine assay, read-out: IC50 growth inhibition NF54*
[4] = test system: P. falciparum K1 (CQ-resistant); assay: [3H]-hypoxanthine incorporation assay, K1 strain; settings: Plasmodium falciparum, values marked with asterisk: [3H]-hypoxanthine assay, read-out: IC50 growth inhibition K1 (*)

Row | IC50 [1] | IC50 [2] | IC50 [3] | IC50 [4] | Structure (SMILES)
1 | 2460 nM | 507 nM | – | – | O=C(NCc1ccccc1)c1ccccc1OCC(O)CNC12CC3CC(CC(C3)C1)C2 (stereo not shown) [Compound I-1, 2-[3-(Adamantan-1-ylamino)-2-hydroxy-propoxy]-N-benzyl-benzamide]
2 | 680 nM | 435 nM | – | – | COc1ccccc1CNC(=O)c1ccccc1OCC(O)CNC12CC3CC(CC(C3)C1)C2 (stereo not shown) [Compound I-2, 2-[3-(Adamantan-1-ylamino)-2-hydroxy-propoxy]-N-(2-methoxy-benzyl)-benzamide]
3 | 121 nM | 29 nM | – | – | O=C(NCc1ccccc1)c1ccccc1OCC(O)CNC1C2CC3CC(C2)CC1C3 (stereo not shown) [Compound I-6, 2-[3-(Adamantan-2-ylamino)-2-hydroxy-propoxy]-N-benzyl-benzamide]
4 | 198 nM | 99 nM | – | – | COc1ccccc1CNC(=O)c1ccccc1OCC(O)CNC1C2CC3CC(C2)CC1C3 (stereo not shown) [Compound I-7, 2-[3-(Adamantan-2-ylamino)-2-hydroxy-propoxy]-N-(2-methoxy-benzyl)-benzamide]
5 | 140 nM | 13 nM | – | – | COc1ccc(CNC(=O)c2ccccc2OCC(O)CNC2C3CC4CC(C3)CC2C4)cc1 (stereo not shown) [Compound I-8, 2-[3-(Adamantan-2-ylamino)-2-hydroxy-propoxy]-N-(4-methoxy-benzyl)-benzamide]
6 | 264 nM | 29 nM | – | – | O=C(NCCc1ccccc1)c1ccccc1OCC(O)CNC1C2CC3CC(C2)CC1C3 (stereo not shown) [Compound I-9, 2-[3-(Adamantan-2-ylamino)-2-hydroxy-propoxy]-N-phenethyl-benzamide]
7 | 186 nM | 45 nM | – | – | O=C(NCCCc1ccccc1)c1ccccc1OCC(O)CNC1C2CC3CC(C2)CC1C3 (stereo not shown) [Compound I-11, 2-[3-(Adamantan-2-ylamino)-2-hydroxy-propoxy]-N-(3-phenyl-propyl)-benzamide]
8 | 611 nM | 92 nM | – | – | CCCNC(=O)c1ccccc1OCC(O)CNC1C2CC3CC(C2)CC1C3 (stereo not shown) [Compound I-12, 2-[3-(Adamantan-2-ylamino)-2-hydroxy-propoxy]-N-propyl-benzamide]
9 | 457 nM | 168 nM | – | – | CN(CC(O)COc1ccccc1C(=O)NCc1ccccc1)C1C2CC3CC(C2)CC1C3 (stereo not shown) [Compound I-13, 2-[3-(Adamantan-2-yl-methyl-amino)-2-hydroxy-propoxy]-N-benzyl-benzamide]
10 | 131 nM | 54 nM | – | – | CN(CC(O)COc1ccccc1C(=O)NCc1ccc(C(F)(F)F)cc1)C1C2CC3CC(C2)CC1C3 (stereo not shown) [Compound I-16, 2-[3-(Adamantan-2-yl-methyl-amino)-2-hydroxy-propoxy]-N-(4-trifluoromethyl-benzyl)-benzamide]
11 | 1190 nM | 209 nM | – | – | CCCN(CC(O)COc1ccccc1C(=O)NCc1ccccc1)C1C2CC3CC(C2)CC1C3 (stereo not shown) [Compound I-17, 2-[3-(Adamantan-2-yl-propyl-amino)-2-hydroxy-propoxy]-N-benzyl-benzamide]
12 | 1570 nM | 349 nM | – | – | CCCN(CC(O)COc1ccccc1C(=O)NCc1ccccc1OC)C1C2CC3CC(C2)CC1C3 (stereo not shown) [Compound I-18, 2-[3-(Adamantan-2-yl-propyl-amino)-2-hydroxy-propoxy]-N-(2-methoxy-benzyl)-benzamide]
13 | 153 nM | 40 nM | – | – | CCCCCN(CC(O)COc1ccccc1C(=O)NCc1ccccc1)C1C2CC3CC(C2)CC1C3 (stereo not shown) [Compound I-19, 2-[3-(Adamantan-2-yl-pentyl-amino)-2-hydroxy-propoxy]-N-benzyl-benzamide]
14 | 1260 nM | 100 nM | – | – | O=C(NCc1ccccc1)c1ccccc1OCC(O)CN(C1CC1)C1C2CC3CC(C2)CC1C3 (stereo not shown) [Compound I-20, 2-[3-(Adamantan-2-yl-cyclopropyl-amino)-2-hydroxy-propoxy]-N-benzyl-benzamide]
15 | 4120 nM | 613 nM | – | – | COc1ccccc1CN(CC(O)COc1ccccc1C(=O)NCc1ccccc1)C1C2CC3CC(C2)CC1C3 (stereo not shown) [Compound I-21, 2-{3-[Adamantan-2-yl-(2-methoxy-benzyl)-amino]-2-hydroxy-propoxy}-N-benzyl-benzamide]
16 | 368 nM | 251 nM | – | – | O=C(NCc1ccccc1)c1ccccc1OCC(O)CN(CCc1ccccc1)C1C2CC3CC(C2)CC1C3 (stereo not shown) [Compound I-22, 2-[3-(Adamantan-2-yl-phenethyl-amino)-2-hydroxy-propoxy]-N-benzyl-benzamide]
17 | – | – | 28 nM | 7.1 nM | O=C(Nc1ccc(Br)cc1)c1ccccc1OCC(O)CNC12CC3CC(CC(C3)C1)C2 (stereo not shown) [Compound I-75, 2-[3-(Adamantan-1-ylamino)-2-hydroxy-propoxy]-N-(4-bromo-phenyl)-benzamide]
18 | – | – | 256 nM | 105 nM | O=C(Nc1ccccc1F)c1ccccc1OCC(O)CN1CCC(c2ccccc2)CC1 (stereo not shown) [Compound I-77, N-(2-Fluoro-phenyl)-2-[2-hydroxy-3-(4-phenyl-piperidin-1-yl)-propoxy]-benzamide]
19 | – | – | 205 nM | 74 nM | O=C(Nc1ccccc1F)c1ccccc1OCC(O)CN1CCC(Cc2ccccc2)CC1 (stereo not shown) [Compound I-78, 2-[3-(4-Benzyl-piperidin-1-yl)-2-hydroxy-propoxy]-N-(2-fluoro-phenyl)-benzamide]
20 | – | – | 258 nM | 83 nM | O=C(Nc1ccccc1F)c1ccccc1OCC(O)CN1CCN(C(c2ccccc2)c2ccccc2)CC1 (stereo not shown) [Compound I-79, 2-[3-(4-Benzhydryl-piperazin-1-yl)-2-hydroxy-propoxy]-N-(2-fluoro-phenyl)-benzamide]
21 | – | – | 47 nM | 11 nM | Cc1ccc(NC(=O)c2ccccc2OCC(O)CN2CCC(c3ccccc3)CC2)cc1 (stereo not shown) [Compound I-80, 2-[2-Hydroxy-3-(4-phenyl-piperidin-1-yl)-propoxy]-N-p-tolyl-benzamide]
22 | – | – | 36 nM | 8.6 nM | Cc1ccc(NC(=O)c2ccccc2OCC(O)CN2CCC(Cc3ccccc3)CC2)cc1 (stereo not shown) [Compound I-81, 2-[3-(4-Benzyl-piperidin-1-yl)-2-hydroxy-propoxy]-N-p-tolyl-benzamide]
23 | – | – | 24 nM | 5.9 nM | Cc1ccc(NC(=O)c2ccccc2OCC(O)CN2CCN(C(c3ccccc3)c3ccccc3)CC2)cc1 (stereo not shown) [Compound I-82, 2-[3-(4-Benzhydryl-piperazin-1-yl)-2-hydroxy-propoxy]-N-p-tolyl-benzamide]
24 | – | – | 16 nM | 3.5 nM | O=C(Nc1cccc(C(F)(F)F)c1)c1cc(Cl)ccc1OCC(O)CN1CCC(c2ccccc2)CC1 (stereo not shown) [Compound I-83, 5-Chloro-2-[2-hydroxy-3-(4-phenyl-piperidin-1-yl)-propoxy]-N-(3-trifluoromethyl-phenyl)-benzamide]
25 | – | – | 3.8 nM | 1 nM | O=C(Nc1cccc(C(F)(F)F)c1)c1cc(Cl)ccc1OCC(O)CN1CCC(Cc2ccccc2)CC1 (stereo not shown) [Compound I-84, 2-[3-(4-Benzyl-piperidin-1-yl)-2-hydroxy-propoxy]-5-chloro-N-(3-trifluoromethyl-phenyl)-benzamide]
26 | – | – | 5.7 nM | 1.2 nM | O=C(Nc1cccc(C(F)(F)F)c1)c1cc(Cl)ccc1OCC(O)CN1CCN(C(c2ccccc2)c2ccccc2)CC1 (stereo not shown) [Compound I-85, 2-[3-(4-Benzhydryl-piperazin-1-yl)-2-hydroxy-propoxy]-5-chloro-N-(3-trifluoromethyl-phenyl)-benzamide]
